Structures are written as SMILES.

Common to all, as to assay type: cell-based
For one experiment, the system named is HeLa. Description: MTT assay, HeLa. To be noted: Homo sapiens, HeLa, 72 h, read-out: IC50 ± SD Cervical HeLa. As for the experimental part:
Table S1. The antiproliferative efficacy of the DML1-DML12 compounds on the proliferation of cervical cancer cell line.
Figure S1. The efficacy of DML6 in HeLa cancer cells. The cell-viability curve produced by HeLa cells treated with
vehicle (0 μM), 5 or 10 μM of DML6 after 72 h of incubation. Cell survival was determined using the MTT assay. The
IC50 values are represented as the means ± SD of three independent experiments performed in triplicate. […]
On the technique in general: Formazan colour is commonly taken as a measure of viable cells.

In another experiment the test system is caspase-9. Description: Western blot, cleaved caspase-9. Particulars: OV2008, 20 μM, 24 hours, vs vehicle. As for the experimental part: (§1) The OV2008 cells were lysed to obtain total cellular protein fractions using Mammalian Protein Extraction Reagent (Catalog # 78501, M-PER™, Thermo Fisher Scientific, Waltham, MA, USA). The cells were seeded in […] at a density of 1 × 10^6 and incubated with 5 or 20 µM of DML6 or 1 µM of doxorubicin (Catalog # T1-2-, TargetMol, Boston, MA, USA) (a positive control) for 24 h. The following day, the cells were washed with ice-cold PBS, scraped using a cell scrapper and collected in Eppendorf tubes. The tubes were centrifuged at 1500 RPM at 4 °C for 5 min. The solution was discarded and replaced with 70 µL of the cell lysis buffer (M-PER reagent, 100 mM Sodium Orthovanadate (NaOV) at a final concentration of 2.5 mM) and a 100X protease inhibitor cocktail (Catalog # P8340, Sigma-Aldrich, St. Louis, MO, USA, final concentration of 1X, containing of aprotinin, bestatin, E-64, leupeptin and pepstatin). Thirty minutes later, the resulting solution was centrifuged at 10,000 RPM at 4 °C for 5 min and the supernatant was collected. The protein concentration of the cell extracts was determined using the bicinchoninic acid (BCA) (Catalog # 786-570, G-Biosciences, Saint Louis, MO, USA) quantification assay. […] Finally, the amount of protein in each blot was quantified using the Image J software (NIH, Bethesda, MD, USA). All data were calculated as a ratio to β-actin.
For orientation: A western blot detects proteins with antibodies after separation by electrophoresis.

Experiment [1] deals with OV2008 cells. Description: Cell cycle analysis, flow cytometry with propidium iodide. To be noted: for percentage of cells in the G2 phase / percentage of cells in the G1 phase: 24 h; for percentage of cells in the G2 phase: vehicle 4.18%; for percentage of cells in the G1 phase: vehicle 85.99%. How it is done:
Cell cycle analysis was conducted using flow cytometry cell cycle analysis with propidium iodide (PI) as previously described. OV2008 cells were plated into 6-well plates at 2.5 × 10^5 cells/well. The cells were incubated with the vehicle, 5 or 20 μM of DML6 for 24 h. The next day, the cells were trypsinized with 0.25% trypsin, 2.21 mM EDTA, 1X, washed, counted, and resuspended in 1ml of ice-cold PBS. The cells were then stained with 200 µL (50 µg/ml stock solution propidium iodide (PI) dye and incubated for at least 15 min. The distribution of the cells in each phase of the cell cycle after incubation with the vehicle or DML6 was determined using A BD FACSCanto™ flow cytometer (BD Biosciences, Becton-Dickinson, San Jose, CA, USA) and analyzed using FCS Express 7 plus De Novo software (Glendale, CA, USA).
A general note: In flow cytometry, cells or beads pass a laser one at a time.

The next experiment has as its system caspase-3. Description: Western blot, cleaved caspase-3. Particulars: OV2008, 5 or 20 µM, vs vehicle. How it is done: as §1
A further experiment deals with MDA-MB-231. Description: MTT assay, MDA-MB-231. To be noted: Homo sapiens, MDA-MB-231, 72 h, read-out: IC50 ± SD Breast MDA-MB-231.
Another experiment relates to caspase-7. Description: Western blot, cleaved caspase-7. Particulars: OV2008, 5 or 20 µM, vs vehicle. As for the experimental part: as §1
For the next experiment, the system named is OV2008. Description: MTT assay, OV2008. To be noted: 72 h, read-out: IC50 ± SD Cervical OV2008.
The subject of another experiment is Bak. Description: Western blot, Bak. To be noted: OV2008, 5 and 20 μM, 24 h, vs vehicle. How it is done:
as §1

The test system of a further experiment is DU145. Description: MTT assay, DU145. To be noted: Homo sapiens, DU-145, 72 h, read-out: IC50 ± SD Prostate DU145.
For a further experiment, the system named is Bcl-2. Description: Western blot, Bcl-2. To be noted: OV2008, 20 μM, 24 h, vs vehicle. As for the experimental part: as §1
Experiment [2] relates to OV2008 cells. Description: IncuCyte live-cell morphology study (confluence). Particulars: 72 hours, vehicle ≈70%. As for the experimental part: Real-time live cell analysis was performed as previously described. In order to determine the morphological changes induced by DML6, OV2008 cells were seeded at 4000 cells/well in a 96-well plate and incubated overnight at 37 °C, with 5% CO2 in an incubator. […] IncuCyte was then programmed to capture the images at different time points (0, 24, 48 and 72 h), using the integrated IncuCyte S3 software version 2020B (Essen BioScience, Ann Arbor, MI, USA).

A further experiment deals with Bax. Description: Western blot, Bax. Particulars: OV2008, 5 and 20 μM, 24 h, vs vehicle. How it is done:
as §1

Method for DU145: (§2) The concentration of the tested compounds that produced a 50% inhibition of cell growth (IC50) was determined.
(§3) A panel of cancer cell lines, including cervical (OV2008 and HeLa), breast (MDA-MB-231), lung (A549) and colon (LOVO), prostate (DU145), human embryonic kidney cells (HEK293), human colon fibroblast cells (CRL1459), and Chinese hamster ovary cells (CHO), were grown as adherent monolayers in flasks containing Dulbecco’s modified Eagle medium (DMEM), supplemented with 10% fetal bovine serum (FBS) and 1% penicillin and streptomycin, in a humidified incubator with 5% CO2 at 37 °C.
(§4) The cells were seeded evenly (180 μL/well) in 96-well plates, at a density of 3000–5000 cells/well and incubated with serial dilutions of the compounds ranging from 0.1 to 100 μM. The MTT dye (4 mg/ml) was added after 72 h of incubation and incubated with the cells for an additional 4 h at 37 °C, allowing the viable cells to biotransform the yellow-colored MTT into dark-blue formazan crystals. Following incubation, the medium was aspirated, and the formazan crystals were dissolved by adding 100 μL of DMSO to each well. Cytation™ 5 and Cytation™ 7 multi-mode detector (Bio Tek Instruments, Winooski, VT, USA) was used to determine the absorbance readings at a wavelength of 570 nm. The IC50 values were determined based on 3 separate experiments, with each experiment carried out in triplicate.
Method for MDA-MB-231: as §2, §3, §4

The IC50 is the concentration at which inhibition is half-maximal. Turning to `CN(C)c1ccc(/C=C/C(=O)c2ccc(Cl)cc2Cl)cc1` [DML6, (E)-1-[2,4-dichlorophenyl]-3-(4-(dimethylamino)phenyl)prop-2-en-1-one], the half-maximal inhibitory concentration (IC50) in the experiment with HeLa amounted to 9.08 ± 0.69 µM; in the experiment on MDA-MB-231 it was 91.9 ± 11.5 µM; in the experiment on OV2008, 7.8 µM; with DU145, 96.9 ± 4.4 µM. The “cleavage of initiator caspase-9” value in the experiment with caspase-9 was “induced the cleavage”. Besides, the “percentage of cells in the G2 phase” value in the experiment on OV2008 cells [1] (5 μM) is reported as 42.56%; with OV2008 cells [1] (20 μM) it was 59.96%. In addition, the “percentage of cells in the G1 phase” value worked out at 16.01% in the experiment with OV2008 cells [1] (5 μM) and 27.84% in the experiment on OV2008 cells [1] (20 μM). Also, the “change of percentage of cells in the sub G1 phase” value in the experiment on OV2008 cells [1] (5 or 10 µM, vs vehicle) is “neither 5 or 10 µM of DML6 significantly altered”. Also, in the experiment on caspase-3, the “cleavage (activation) of caspase-3” value is “significantly increased the cleavage”. In the experiment on caspase-7, the “cleavage (activation) of caspase-7” value is “significantly increased the cleavage”. The “expression of the pro-apoptotic protein Bak” value in the experiment with Bak is listed as “significantly increased the expression”. Moreover, the “levels of the anti-apoptotic protein Bcl-2” value in the experiment with Bcl-2 was “significantly decreased”. The figures for the “confluence of OV2008” value in the experiment with OV2008 cells [2] (5 µM) and in the experiment with OV2008 cells [2] (20 µM) were “≈ 40%” and “≈ 10%”, respectively. Besides, in the experiment on Bax, the “expression of the pro-apoptotic protein Bax” value is on record as “significantly increased the expression”.

(Values after article PMC8306139, “A Novel Dialkylamino-Functionalized Chalcone, DML6, Inhibits Cervical Cancer Cell Proliferation, In Vitro, via Induction of Oxidative Stress, Intrinsic Apoptosis and Mitotic Catastrophe” (Molecules, 2021).)
